Source: ChEMBL document CHEMBL1201862, “PubChem BioAssay data set” (2004)
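Method: 48-hour compound exposure of cells in 96-well plates, five concentrations, linear interpolation of endpoints. Abbreviation: GI50, concentration required for 50% inhibition of growth.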 Activity calls are given as the source filed them. Cut-off read from the data, not from the text of the source: active = GI50 up to about 1.1 µM and inactive = higher. Non-standard residues stand in square brackets, D forms with d. Residues, ends and D or L forms follow the SMILES beside them. ξ: configuration not given here. Pentanoyl(2-O,4-OH,5-Cl) = O=C(O)C(O)CC(O)CCl; Ile(3ξ) = CCC(C)[C@H](N)C(=O)O; NMeV = CN[C@H](C(=O)O)C(C)C; NMeA = CN[C@@H](C)C(=O)O; βAla = NCCC(=O)O

Experiments:
Assay in all cases: DTP human tumour cell line panel, 48 h
786-0 = system: 786-0
DU-145 = system: DU-145
MDA-MB-435 = system: MDA-MB-435
MDA-N = system: MDA-N
M14 = system: M14
KM-20L2 = system: KM-20L2
XF498 = system: XF498
RXF 631 = system: RXF 631
LXFL 529 = system: LXFL 529

SMILES	GI50 (DU-145)	GI50 (MDA-MB-435)	GI50 (MDA-N)	GI50 (M14)	GI50 (KM-20L2)	GI50 (XF498)	other results
Oc1c(Br)ccc2cccnc12	5.4 µM (inactive)	7.5 µM (inactive)	> 19.8 µM (inactive)				GI50 (786-0): 3.91 µM (inactive)
N#Cc1c(NC(=S)NC(=O)c2ccccc2)nc2c(c1-c1ccccc1)CCCC2	> 100 µM (inactive)	> 100 µM (inactive)	> 100 µM (inactive)	> 100 µM (inactive)			
COc1ccc(C2c3cc4c(cc3OC(NCCO)C2C)OCO4)cc1 (configuration not stated)	29.4 µM (inactive)	23.6 µM (inactive)	18.2 µM (inactive)	26.4 µM (inactive)			
Cc1ccc(C#CS(=O)(=O)C(F)(F)F)cc1					> 100 µM (inactive)	> 100 µM (inactive)	
Cc1c(Cl)c(=O)oc2cc(OCC(=O)c3ccccc3)ccc12	> 100 µM (inactive)	> 100 µM (inactive)	> 100 µM (inactive)	> 100 µM (inactive)			
c1ccc2c(c1)NCc1cc3ccccc3nc1O2						> 100 µM (inactive)	
N#CC1=C(O)NC(O)=C(C#N)C1c1c(Cl)cccc1Cl				26.9 µM (inactive)	34.8 µM (inactive)	61.4 µM (inactive)	
CCC(C)[C@@H]1NC(=O)[C@@H]2CCCN2C(=O)C(CC(O)CCl)OC(=O)CCNC(=O)[C@H](C)N(C)C(=O)[C@H](C(C)C)N(C)C1=O (some centres not stated) (cyclo([Ile(3ξ)][NMeV][NMeA][βAla][Pentanoyl(2-O,4-OH,5-Cl)]P))	> 100 µM (inactive)	> 100 µM (inactive)	> 100 µM (inactive)	0.46 µM (active)			
COc1cc2c(oc(=O)c3cc(C)cc(OC)c32)c2c(C3OC(C)C(O)C(C)(O)C3O)ccc(O)c12 (configuration not stated)					0.664 µM (active)	0.37 µM (active)	
O=C1CCCCC2N(C(c3ccccc3)c3ccccc3)CC[C@@]12c1ccccc1.O=C1CCCC[C@H]2N(C(c3ccccc3)c3ccccc3)CC[C@@]12c1ccccc1 (some centres not stated)				> 10 µM (inactive)	> 10 µM (inactive)		GI50 (RXF 631): 3.88 µM (inactive)
CCCCN(C(=O)c1ccccc1)C1CCC(=O)c2[nH]c3ccccc3c21 (configuration not stated)	75 µM (inactive)	23.1 µM (inactive)	50 µM (inactive)	67.1 µM (inactive)			GI50 (786-0): 42.1 µM (inactive)
CN(C)CCCNC(=O)N/N=C/c1ccccc1						> 100 µM (inactive)	
COc1ccc2[nH]c3c(C)c4ccncc4c(C)c3c2c1					0.169 µM (active)	2.7 µM (inactive)	
C=CCC12CC(=O)C=C1CCC1(C2)OCCO1 (configuration not stated)				> 100 µM (inactive)	> 100 µM (inactive)		GI50 (786-0): > 100 µM (inactive); GI50 (LXFL 529): > 100 µM (inactive); GI50 (RXF 631): > 100 µM (inactive)
O=C1NC(=O)C(CCO)(c2ccccc2)C(=O)N1					> 100 µM (inactive)	> 68.4 µM (inactive)	
CN(C)c1ccc(C2CC(=O)CC(c3ccc(N(C)C)cc3)C23C(=O)NC(=O)NC3=O)cc1 (configuration not stated)	> 25 µM (inactive)	> 25 µM (inactive)	> 25 µM (inactive)	> 25 µM (inactive)			GI50 (786-0): 12.4 µM (inactive)
COC1C(O)C(n2ncc3c(SC)nc(SC)nc32)OC1C(O)CO (configuration not stated)					> 100 µM (inactive)	> 100 µM (inactive)	
Nc1ccccc1Sc1ccc(Cl)cc1				31.8 µM (inactive)	20.9 µM (inactive)		GI50 (LXFL 529): 38.2 µM (inactive)
Nc1ccccc1S(=O)(=O)c1ccccc1				> 100 µM (inactive)	> 100 µM (inactive)		GI50 (LXFL 529): > 100 µM (inactive); GI50 (RXF 631): > 100 µM (inactive)
CCOC(=O)c1c[nH]c2cc3c(cc2c1=O)CCS3(=O)=O.CCOC(=O)c1c[nH]c2ccc3c(c2c1=O)S(=O)(=O)CC3					> 100 µM (inactive)	> 100 µM (inactive)	
